Drawing on US9309263B2, “Fused multi-cyclic sulfone compounds as inhibitors of beta-secretase and methods of use thereof” (AMGEN INC., priority 2013, dated 2016), this text covers IC50 for 15 molecules.

Bounds are passed on as bounds.

The test system of experiment [1] is Aβ 40 in conditioned medium of cells stably expressing Amyloid Precursor Protein (APP). Briefly: In vitro BACE cell-based assay (Aβ 40 sandwich ELISA). Conditions: Homo sapiens, HEK293; average IC50, HEK cell assay, Aβ 40 readout. In short, it runs like this: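 APP-expressing cells, 24 h pre-culture in DMEM/10% FBS, treated 24 h with 10-point compound dilutions from 100 or 10 μM top, 0.1% DMSO final. Secreted Aβ40 quantified by sandwich ELISA (pAb40 capture, biotinylated 6E10 detection, europium TRF); IC50 from percent inhibition versus concentration.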
A general note: An ELISA detects its analyte on a solid surface through an enzyme-linked reagent.

Experiment [2] addresses Beta Secretase enzyme (BACE) (Homo sapiens, UniProt P56817). The experiment can be described thus: In vitro enzymatic BACE FRET assay. Format: biochemical. Conditions: average IC50, in vitro enzymatic BACE FRET assay; read-out: BACE1 FRET assay IC50. In short, it runs like this: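 Enzyme (0.2 nM) pre-incubated 1 h with serially diluted inhibitors in 0.05 M acetate pH 4.2, 10% DMSO, 100 uM genapol. Reaction started with 50 nM fluorophore/quencher peptide FRET substrate, run 1 h, stopped with Tris to neutral pH. Fluorescence read at excitation 488 nm, […].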

Another experiment deals with Cathepsin D (Cat D) (Homo sapiens, UniProt P07339). The experiment can be described thus: In vitro enzymatic Cathepsin D (Cat D) FRET assay. The settings on record: Cathepsin D FRET assay; read-out: CatD IC50. Format: biochemical. In short, it runs like this: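 Recombinant CHO-expressed enzyme (9 nM) pre-incubated 1 h with serially diluted inhibitor in 0.05 M citrate pH 3.5, 10% DMSO final, 5 mM CHAPS. Reaction started with 20 nM FRET peptide substrate, run 1 h, stopped with Tris to neutral pH; fluorescence read at ex 500/em 580 nm.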
Chain of Cathepsin D (Cat D) (P07339 65-412, species assumed): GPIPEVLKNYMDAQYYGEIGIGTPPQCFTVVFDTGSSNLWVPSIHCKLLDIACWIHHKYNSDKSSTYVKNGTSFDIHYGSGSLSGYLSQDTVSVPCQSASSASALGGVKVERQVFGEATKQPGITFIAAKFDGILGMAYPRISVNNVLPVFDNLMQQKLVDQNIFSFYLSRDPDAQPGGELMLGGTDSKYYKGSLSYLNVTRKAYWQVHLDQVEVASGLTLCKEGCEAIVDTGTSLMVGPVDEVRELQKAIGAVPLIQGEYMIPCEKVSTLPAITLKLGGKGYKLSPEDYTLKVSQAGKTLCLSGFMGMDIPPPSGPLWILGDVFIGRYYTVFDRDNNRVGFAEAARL

Chain of Beta Secretase enzyme (BACE) (P56817 46-501): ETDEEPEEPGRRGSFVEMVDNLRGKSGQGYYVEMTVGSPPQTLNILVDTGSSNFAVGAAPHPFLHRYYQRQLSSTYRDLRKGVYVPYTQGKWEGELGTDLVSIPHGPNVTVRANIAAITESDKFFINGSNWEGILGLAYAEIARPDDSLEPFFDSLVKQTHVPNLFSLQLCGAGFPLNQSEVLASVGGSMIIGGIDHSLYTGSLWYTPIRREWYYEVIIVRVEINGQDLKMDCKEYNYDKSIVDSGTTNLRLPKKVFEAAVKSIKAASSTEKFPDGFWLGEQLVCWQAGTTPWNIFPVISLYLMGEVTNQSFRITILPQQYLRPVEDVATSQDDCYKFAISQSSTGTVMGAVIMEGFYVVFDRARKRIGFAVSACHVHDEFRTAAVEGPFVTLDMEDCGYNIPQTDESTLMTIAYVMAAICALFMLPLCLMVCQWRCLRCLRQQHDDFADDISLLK

In general, IC50 refers to the concentration at which inhibition is half-maximal. Consider `Cc1cc(C(F)(F)F)cnc1C(=O)Nc1ccc2c(c1)[C@@]1(CF)N=C(N)C(C)(C)S(=O)(=O)[C@H]1CCO2` [Example 116, N-((4aS,11bS)-2-amino-11b-(fluoromethyl)-3,3-dimethyl-4,4-dioxido-4a,5,6,11b-tetrahydro-3H-[1]benzoxepino[4,5-b][1,4]thiazin-10-yl)-3-methyl-5-(trifluoromethyl)-2-pyridinecarboxamide], for which the IC50 was 0.014 µM in experiment [1], 0.011 µM in experiment [2] and more than 400 µM on Cathepsin D (Cat D).

As to `COc1cnc(C(=O)Nc2ccc3c(c2)[C@@]2(C)N=C(N)C(C)(C)S(=O)(=O)[C@@H]2CCS3)cn1` [Example 117, N-((4aR,11bR)-2-amino-3,3,11b-trimethyl-4,4-dioxido-4a,5,6,11b-tetrahydro-3H-[1]benzothiepino[4,5-b][1,4]thiazin-10-yl)-5-methoxy-2-pyrazinecarboxamide], the IC50 came out at 0.003 µM in experiment [1], 0.014 µM in experiment [2] and 168 µM at Cathepsin D (Cat D).

Turning to `Cc1cc(OC(F)F)cnc1C(=O)Nc1ccc2c(c1)[C@@]1(C)N=C(N)C(C)(C)S(=O)(=O)[C@@H]1CCS2` [Example 118], the figures for the IC50 (in experiment [1]; in experiment [2]; at Cathepsin D (Cat D)) were 0.002 µM, 0.002 µM and 207 µM, respectively.

For the molecule `Cc1cc(C(F)(F)F)cnc1C(=O)Nc1ccc2c(c1)[C@@]1(CF)N=C(N)C(C)(C)S(=O)(=O)[C@@H]1CCO2` [Example 119, N-((4aR,11bS)-2-amino-11b-(fluoromethyl)-3,3-dimethyl-4,4-dioxido-4a,5,6,11b-tetrahydro-3H-[1]benzoxepino[4,5-b][1,4]thiazin-10-yl)-3-methyl-5-(trifluoromethyl)-2-pyridinecarboxamide], the IC50 in experiment [1] amounted to 0.019 µM; in experiment [2], 0.024 µM; at Cathepsin D (Cat D) it was 3360 µM.

As to `CC1(C)C(N)=N[C@]2(CF)c3cc(NC(=O)c4cnc(C(F)(F)F)cn4)ccc3OCC[C@@H]2S1(=O)=O` [Example 120, N-((4aS,11bS)-2-amino-11b-(fluoromethyl)-3,3-dimethyl-4,4-dioxido-4a,5,6,11b-tetrahydro-3H-[1]benzoxepino[4,5-b][1,4]thiazin-10-yl)-5-(trifluoromethyl)-2-pyrazinecarboxamide], the IC50 is 0.148 µM in experiment [1], 0.082 µM in experiment [2] and 752 µM at Cathepsin D (Cat D).

On to `CC1(C)C(N)=N[C@]2(CF)c3cc(NC(=O)c4cnc(C(F)(F)F)cn4)ccc3OCC[C@H]2S1(=O)=O` [Example 121, N-((4aR,11bS)-2-amino-11b-(fluoromethyl)-3,3-dimethyl-4,4-dioxido-4a,5,6,11b-tetrahydro-3H-[1]benzoxepino[4,5-b][1,4]thiazin-10-yl)-5-(trifluoromethyl)-2-pyrazinecarboxamide], for which the values for the IC50 (in experiment [1]; in experiment [2]; on Cathepsin D (Cat D)) were 0.21 µM, 0.184 µM and 995 µM, respectively.

In the case of `CC1(C)C(N)=N[C@]2(CF)c3cc(NC(=O)c4ccc(OC(F)F)cn4)ccc3OCC[C@@H]2S1(=O)=O` [Example 122, N-((4aS,11bS)-2-amino-11b-(fluoromethyl)-3,3-dimethyl-4,4-dioxido-4a,5,6,11b-tetrahydro-3H-[1]benzoxepino[4,5-b][1,4]thiazin-10-yl)-5-(difluoromethoxy)-2-pyridinecarboxamide], the values for the IC50 (in experiment [1]; in experiment [2]; on Cathepsin D (Cat D)) were 0.013 µM, 0.011 µM and 1030 µM, respectively.

Regarding `CC1(C)C(N)=N[C@]2(CF)c3cc(NC(=O)c4ccc(OC(F)F)cn4)ccc3OCC[C@H]2S1(=O)=O` [Example 123, N-((4aR,11bS)-2-amino-11b-(fluoromethyl)-3,3-dimethyl-4,4-dioxido-4a,5,6,11b-tetrahydro-3H-[1]benzoxepino[4,5-b][1,4]thiazin-10-yl)-5-(difluoromethoxy)-2-pyridinecarboxamide], the IC50 is 0.033 µM in experiment [1], 0.019 µM in experiment [2] and 4100 µM on Cathepsin D (Cat D).

For the molecule `Cc1cc(Cl)cnc1C(=O)Nc1ccc2c(c1)[C@@]1(C)N=C(N)C(C)(C)S(=O)(=O)[C@@H]1CCS2(=O)=O` [Example 124, N-((4aR,11bR)-2-amino-3,3,11b-trimethyl-4,4,7,7-tetraoxido-4a,5,6,11b-tetrahydro-3H-benzo[6,7]thiepino[4,5-b][1,4]thiazin-10-yl)-5-chloro-3-methylpicolinamide], the IC50 in experiment [1] is 0.008 µM; in experiment [2] it was 0.006 µM; on Cathepsin D (Cat D), more than 1.65 µM.

Turning to `CC1(C)C(N)=N[C@]2(C)c3cc(NC(=O)c4ccc(OCC#N)cn4)ccc3OCC[C@H]2S1(=O)=O` [Example 126, N-((4aR,11bR)-2-amino-3,3,11b-trimethyl-4,4-dioxido-4a,5,6,11b-tetrahydro-3H-[1]benzoxepino[4,5-b][1,4]thiazin-10-yl)-5-(cyanomethoxy)-2-pyridinecarboxamide], the results for the IC50 (in experiment [1]; in experiment [2]; on Cathepsin D (Cat D)) were 0.034 µM, 0.017 µM and more than 1.65 µM, respectively.

On to `CC1(C)C[C@@H]2[C@](C)(N=C(N)C(C)(C)S2(=O)=O)c2cc(NC(=O)c3ncc(Cl)cc3Cl)ccc2O1` [Example 128, N-((4aR,11bR)-2-amino-3,3,6,6,11b-pentamethyl-4,4-dioxido-4a,5,6,11b-tetrahydro-3H-[1]benzoxepino[4,5-b][1,4]thiazin-10-yl)-3,5-dichloro-2-pyridinecarboxamide], for which the IC50 in experiment [1] is 0.003 µM; in experiment [2] it was 0.008 µM; at Cathepsin D (Cat D) it was 593 µM.

For `C[C@H]1C[C@@H]2[C@](C)(N=C(N)C(C)(C)S2(=O)=O)c2cc(NC(=O)c3ncc(Cl)cc3CO)ccc2O1` [Example 130, N-((4aR,6S,11bR)-2-amino-3,3,6,11b-tetramethyl-4,4-dioxido-4a,5,6,11b-tetrahydro-3H-benzo[6,7]oxepino[4,5-b][1,4]thiazin-10-yl)-5-chloro-3-(hydroxymethyl)picolinamide], the IC50 is 0.0008 µM in experiment [1], 0.003 µM in experiment [2] and 44.8 µM at Cathepsin D (Cat D).

Take `C[C@H]1C[C@@H]2[C@](C)(N=C(N)C(C)(C)S2(=O)=O)c2cc(Nc3nccc4cc(C(F)(F)F)cnc34)ccc2O1` [Example 131, (4aR,6S,11bR)-2-amino-3,3,6,11b-tetramethyl-10-((3-(trifluoromethyl)-1,7-naphthyridin-8-yl)amino)-4a,5,6,11b-tetrahydro-3H-benzo[6,7]oxepino[4,5-b][1,4]thiazine 4,4-dioxide]: the IC50 amounted to 0.005 µM in experiment [1], 0.005 µM in experiment [2] and 443 µM at Cathepsin D (Cat D).

In the case of `Cc1cc(C(F)(F)F)cnc1C(=O)Nc1ccc2c(c1)[C@@]1(C)N=C(N)C(C)(C)S(=O)(=O)[C@@H]1CCS2` [Example 132, N-((4aR,11bR)-2-amino-3,3,11b-trimethyl-4,4-dioxido-4a,5,6,11b-tetrahydro-3H-[1]benzothiepino[4,5-b][1,4]thiazin-10-yl)-3-methyl-5-(trifluoromethyl)-2-pyridinecarboxamide], the IC50 in experiment [1] worked out at 0.0008 µM; in experiment [2], 0.002 µM; on Cathepsin D (Cat D), 357 µM.

As for `Cc1cnc(COc2cnc3c(Nc4ccc5c(c4)[C@@]4(C)N=C(N)C(C)(C)S(=O)(=O)[C@@H]4C[C@H](C)O5)nccc3n2)o1` [Example 134, (4aR,6S,11bR)-3,3,6,11b-tetramethyl-N^~10^~-(2-((5-methyl-1,3-oxazol-2-yl)methoxy)pyrido[3,4-b]pyrazin-5-yl)-4a,5,6,11b-tetrahydro-3H-[1]benzoxepino[4,5-b][1,4]thiazine-2,10-diamine 4,4-dioxide], the IC50 in experiment [1] is 0.003 µM; in experiment [2], 0.003 µM; at Cathepsin D (Cat D) it was more than 44.4 µM.
